# Source: US20090281049A1, “New use of ginsenoside compound-k in manufacturing medicaments” (priority 2006, published 2009)
# Key:
# [1] = tested on: Adjuvant Arthritis in rats; test: Preventive effect on adjuvant induced adjuvant arthritis in rats; type: in vivo, Rat, SD strain
# Description: Freund's Adjuvant Complete, purchased from Sigma Company, was injected into the plantar surface of the right hind paw by 0.1 ml in order to induce inflammation in rats.
# Animals were firstly divided into large dose group: 10 mg/kg, iv, medium dose group: 5 mg/kg, iv, small dose group: 2.5 mg/kg, iv, Indomethacin group: 1 mg/kg, po, Tripterygium Wilfordii Hook group: 1.5 mg/kg, po and blank control group: physiological saline 10 mg/kg, iv. The volume of the right hind paw of the rats was measured by using hydroplethismometer before inflammation induced. Then 0.1 ml Freund's Adjuvant Complete was injected into the plantar surface of the right hind paw in order to induce inflammation in rats. The rats were grouped by the foregoing division way in the succeeding day, and to be administered for 15 days. The volume of paw was measured in regular intervals. Swell rate and inhibition rate were calculated by the same method as the foregoing. Differences among groups were compared by t test.
# [2] = tested on: carrageenan-induced acute inflammation in mice; test: Carrageenan-induced paw edema in mice; type: in vivo, Kunming mice
smiles,measurement,setting,value
"CC(C)=CCC[C@](C)(O[C@@H]1O[C@H](CO)[C@@H](O)[C@H](O)[C@H]1O)[C@H]1CC[C@]2(C)[C@@H]1[C@H](O)C[C@@H]1[C@@]3(C)CC[C@H](O)C(C)(C)[C@@H]3CC[C@]12C [Ginsenoside Compound-K, ginsenoside Compound-K]",swell value,"[1]; 2.5 mg/kg iv, 0 day",1.24 ± 0.08 mL
same,inhibition rate,"[1]; 2.5 mg/kg iv, 2 day",<21.71> %
same,swell rate,"[1]; 2.5 mg/kg iv, 2 day",(56.65 ± 17.83) %
same,swell value,"[1]; 2.5 mg/kg iv, 2 day",2.14 ± 0.15 mL
same,inhibition rate,"[1]; 2.5 mg/kg iv, 4 day",<18.33> %
same,swell rate,"[1]; 2.5 mg/kg iv, 4 day",(73.11 ± 15.82) %
same,swell value,"[1]; 2.5 mg/kg iv, 4 day",2.14 ± 0.15 mL
same,inhibition rate,"[1]; 2.5 mg/kg iv, 6 day",<20.67> %
same,swell rate,"[1]; 2.5 mg/kg iv, 6 day",(70.87 ± 14.91) %
same,swell value,"[1]; 2.5 mg/kg iv, 6 day",2.11 ± 0.10 mL
same,inhibition rate,"[1]; 2.5 mg/kg iv, 9 day",<20.95> %
same,swell rate,"[1]; 2.5 mg/kg iv, 9 day",(57.25 ± 14.42) %
same,swell value,"[1]; 2.5 mg/kg iv, 9 day",1.95 ± 0.17 mL
same,inhibition rate,"[1]; 2.5 mg/kg iv, 11 day",<20.82> %
same,swell rate,"[1]; 2.5 mg/kg iv, 11 day",(61.69 ± 21.61) %
same,swell value,"[1]; 2.5 mg/kg iv, 11 day",2.00 ± 0.26 mL
same,inhibition rate,"[1]; 2.5 mg/kg iv, 13 day",<25.97> %
same,swell rate,"[1]; 2.5 mg/kg iv, 13 day",(61.24 ± 13.26) %
same,swell value,"[1]; 2.5 mg/kg iv, 13 day",2.00 ± 0.15 mL
same,inhibition rate,"[1]; 2.5 mg/kg iv, 15 day",<28.05> %
same,swell rate,"[1]; 2.5 mg/kg iv, 15 day",(58.02 ± 15.92) %
same,swell value,"[1]; 2.5 mg/kg iv, 15 day",1.96 ± 0.20 mL
same,swell value,"[1]; 5 mg/kg iv, 0 day",1.25 ± 0.06 mL
same,inhibition rate,"[1]; 5 mg/kg iv, 2 day",<35.56> %
same,swell rate,"[1]; 5 mg/kg iv, 2 day",(46.63 ± 11.66) %
same,swell value,"[1]; 5 mg/kg iv, 2 day",2.10 ± 0.21 mL
same,inhibition rate,"[1]; 5 mg/kg iv, 4 day",<23.65> %
same,swell rate,"[1]; 5 mg/kg iv, 4 day",(68.35 ± 15.68) %
same,swell value,"[1]; 5 mg/kg iv, 4 day",2.10 ± 0.21 mL
same,inhibition rate,"[1]; 5 mg/kg iv, 6 day",<17.94> %
same,swell rate,"[1]; 5 mg/kg iv, 6 day",(73.31 ± 17.73) %
same,swell value,"[1]; 5 mg/kg iv, 6 day",2.16 ± 0.18 mL
same,inhibition rate,"[1]; 5 mg/kg iv, 9 day",<20.45> %
same,swell rate,"[1]; 5 mg/kg iv, 9 day",(57.60 ± 13.83) %
same,swell value,"[1]; 5 mg/kg iv, 9 day",1.97 ± 0.21 mL
same,inhibition rate,"[1]; 5 mg/kg iv, 11 day",<28.37> %
same,swell rate,"[1]; 5 mg/kg iv, 11 day",(55.81 ± 11.54) %
same,swell value,"[1]; 5 mg/kg iv, 11 day",1.95 ± 0.18 mL
same,inhibition rate,"[1]; 5 mg/kg iv, 13 day",<27.79> %
same,swell rate,"[1]; 5 mg/kg iv, 13 day",(59.74 ± 11.82) %
same,swell value,"[1]; 5 mg/kg iv, 13 day",2.00 ± 0.18 mL
same,inhibition rate,"[1]; 5 mg/kg iv, 15 day",<29.21> %
same,swell rate,"[1]; 5 mg/kg iv, 15 day",(57.08 ± 14.00) %
same,swell value,"[1]; 5 mg/kg iv, 15 day",1.96 ± 0.21 mL
same,swell value,"[1]; 10 mg/kg iv, 0 day",1.29 ± 0.08 mL
same,inhibition rate,"[1]; 10 mg/kg iv, 2 day",<29.48> %
same,swell rate,"[1]; 10 mg/kg iv, 2 day",(51.03 ± 8.03) %
same,swell value,"[1]; 10 mg/kg iv, 2 day",2.17 ± 0.14 mL
same,inhibition rate,"[1]; 10 mg/kg iv, 4 day",<22.99> %
same,swell rate,"[1]; 10 mg/kg iv, 4 day",(68.94 ± 10.49) %
same,swell value,"[1]; 10 mg/kg iv, 4 day",2.17 ± 0.14 mL
same,inhibition rate,"[1]; 10 mg/kg iv, 6 day",<19.52> %
same,swell rate,"[1]; 10 mg/kg iv, 6 day",(71.90 ± 9.64%
same,swell value,"[1]; 10 mg/kg iv, 6 day",2.21 ± 0.15 mL
same,inhibition rate,"[1]; 10 mg/kg iv, 9 day",<19.59> %
same,swell rate,"[1]; 10 mg/kg iv, 9 day",(58.23 ± 11.44) %
same,swell value,"[1]; 10 mg/kg iv, 9 day",2.03 ± 0.15 mL
same,inhibition rate,"[1]; 10 mg/kg iv, 11 day",<30.08> %
same,swell rate,"[1]; 10 mg/kg iv, 11 day",(54.48 ± 12.39) %
same,swell value,"[1]; 10 mg/kg iv, 11 day",1.98 ± 0.14 mL
same,inhibition rate,"[1]; 10 mg/kg iv, 13 day",<29.83> %
same,swell rate,"[1]; 10 mg/kg iv, 13 day",(58.04 ± 10.97) %
same,swell value,"[1]; 10 mg/kg iv, 13 day",2.03 ± 0.13 mL
same,inhibition rate,"[1]; 10 mg/kg iv, 15 day",<31.26> %
same,swell rate,"[1]; 10 mg/kg iv, 15 day",(55.42 ± 14.65) %
same,swell value,"[1]; 10 mg/kg iv, 15 day",1.99 ± 0.18 mL
same,overall preventive effect on Adjuvant Arthritis,"[1]; rats, 10, 5, 2.5 mg/kg iv for 15 days",able to prevent Adjuvant Arthritis in rats
same,swell value,"[2]; 2.5 mg/kg iv, 0 h",1.49 ± 0.15 mL
same,inhibition rate,"[2]; 2.5 mg/kg iv, 1 h",<14.70> %
same,swell rate,"[2]; 2.5 mg/kg iv, 1 h",(66.63 ± 7.82) %
same,swell value,"[2]; 2.5 mg/kg iv, 1 h",2.36 ± 0.22 mL
same,inhibition rate,"[2]; 2.5 mg/kg iv, 2 h",<12.30> %
same,swell rate,"[2]; 2.5 mg/kg iv, 2 h",(64.26 ± 14.54) %
same,swell value,"[2]; 2.5 mg/kg iv, 2 h",2.43 ± 0.23 mL
same,inhibition rate,"[2]; 2.5 mg/kg iv, 4 h",<29.40> %
same,swell rate,"[2]; 2.5 mg/kg iv, 4 h",(61.75 ± 11.27) %
same,swell value,"[2]; 2.5 mg/kg iv, 4 h",2.33 ± 0.17 mL
same,inhibition rate,"[2]; 2.5 mg/kg iv, 6 h",<31.64> %
same,swell rate,"[2]; 2.5 mg/kg iv, 6 h",(53.48 ± 11.12) %
same,swell value,"[2]; 2.5 mg/kg iv, 6 h",2.22 ± 0.15 mL
same,swell value,"[2]; 5 mg/kg iv, 0 h",1.47 ± 0.13 mL
same,inhibition rate,"[2]; 5 mg/kg iv, 1 h",<11.33> %
same,swell rate,"[2]; 5 mg/kg iv, 1 h",(60.97 ± 18.09) %
same,swell value,"[2]; 5 mg/kg iv, 1 h",2.36 ± 0.23 mL
same,inhibition rate,"[2]; 5 mg/kg iv, 2 h",<16.08> %
same,swell rate,"[2]; 5 mg/kg iv, 2 h",(60.97 ± 18.41) %
same,swell value,"[2]; 5 mg/kg iv, 2 h",2.35 ± 0.16 mL
same,inhibition rate,"[2]; 5 mg/kg iv, 4 h",<44.03> %
same,swell rate,"[2]; 5 mg/kg iv, 4 h",(45.04 ± 18.30) %
same,swell value,"[2]; 5 mg/kg iv, 4 h",2.12 ± 0.22 mL
same,inhibition rate,"[2]; 5 mg/kg iv, 6 h",<31.98> %
same,swell rate,"[2]; 5 mg/kg iv, 6 h",(49.81 ± 17.26) %
same,swell value,"[2]; 5 mg/kg iv, 6 h",2.19 ± 0.19 mL
same,swell value,"[2]; 10 mg/kg iv, 0 h",1.56 ± 0.17 mL
same,inhibition rate,"[2]; 10 mg/kg iv, 1 h",<40.64> %
same,swell rate,"[2]; 10 mg/kg iv, 1 h",(40.81 ± 10.14) %
same,swell value,"[2]; 10 mg/kg iv, 1 h",2.18 ± 0.18 mL
same,inhibition rate,"[2]; 10 mg/kg iv, 2 h",<42.79> %
same,swell rate,"[2]; 10 mg/kg iv, 2 h",(41.56 ± 13.38) %
same,swell value,"[2]; 10 mg/kg iv, 2 h",2.19 ± 0.20 mL
same,inhibition rate,"[2]; 10 mg/kg iv, 4 h",<65.66> %
same,swell rate,"[2]; 10 mg/kg iv, 4 h",(27.64 ± 8.46) %
same,swell value,"[2]; 10 mg/kg iv, 4 h",1.98 ± 0.20 mL
same,inhibition rate,"[2]; 10 mg/kg iv, 6 h",<67.80> %
same,swell rate,"[2]; 10 mg/kg iv, 6 h",(23.58 ± 15.23) %
same,swell value,"[2]; 10 mg/kg iv, 6 h",1.91 ± 0.22 mL
same,overall effect on carrageenan-induced acute inflammation,"[2]; mice, 10, 5, 2.5 mg/kg iv",able to inhibit carrageenan-induced acute inflammation in mice obviously
